Data set [1] relates to Smn protein in SMA patient fibroblast cells (GM03813). Nature of the data set: Smn protein assay in cultured cells (SMN HTRF). The format is cell-based, human. The following applies: SMA patient fibroblast cells, 48 hours; for EC1.5x for Smn protein expression: 7-point concentration curve, SMN HTRF, concentration producing 1.5 times Smn protein vs DMSO vehicle control; for maximum fold (Fold) increase of Smn protein: 7-point concentration data, fold relative to vehicle control. The gist of the method:
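Smn protein abundance in treated SMA fibroblasts was measured by HTRF after 48 h compound exposure. The reported EC1.5× is the concentration producing 1.5 times vehicle Smn levels.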
(In general: TR-FRET usually uses a lanthanide donor and a delayed reading to cut background.)

Data set [2] relates to SMN2 minigene mRNA (SMN2-A minigene) in HEK293H cells. Nature of the data set: SMN2 minigene mRNA splicing RT-qPCR assay in cultured cells. The data set is classed as cell-based, human. The following applies: Homo sapiens, HEK293-H; concentration increasing full length SMN2 mRNA 1.5-fold relative to vehicle-treated cells; HEK293H cells with SMN2-A minigene, 24 hours, 7-point concentration data; read-out: EC1.5x for production of full length SMN2 mRNA. The gist of the method:
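Potency reflects the concentration that lifts full-length SMN2 minigene mRNA 1.5-fold above vehicle in stably transfected HEK293H cells after 24 h of treatment. Transcript abundance came from RT-qPCR as (1+E)^−Ct, normalized to GAPDH; endogenous SMN1/SMN2 are not detected.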

Consider `Cc1cn2nc(-c3cc(=O)n4cc(C5CCN(C)CC5)ncc4n3)cc2c(C)n1` [Compound 503, 2-(4,6-dimethylpyrazolo[1,5-a]pyrazin-2-yl)-7-(1-methylpiperidin-4-yl)-4H-pyrazino[1,2-a]pyrimidin-4-one], for which the melting point lay within 257 to 259 °C. In addition, in data set [1], the “EC1.5x for Smn protein expression” value was “**** (an EC1.5x≤0.3 μM is indicated by four stars (****))” and the “maximum fold (Fold) increase of Smn protein” value (shortened to “maximum fold (Fold) increase”) is recorded as “***** (a fold increase >1.65 is indicated by five stars (*****))”. The EC (1.5-fold increase) in data set [2] is less than 0.1 µM.
With `Cn1ncc2cc(-c3cc(=O)n4cc(C5=CCNCC5)ncc4n3)ccc21` [Compound 505, 2-(1-methyl-1H-indazol-5-yl)-7-(1,2,3,6-tetrahydropyridin-4-yl)-4H-pyrazino[1,2-a]pyrimidin-4-one], the melting point fell in the range of 228 to 230 °C. In data set [1], the “EC1.5x for Smn protein expression” value is listed as “**** (an EC1.5x≤0.3 μM is indicated by four stars (****))”; the “maximum fold (Fold) increase” value is “**** (a fold increase between >1.5 and ≤1.65 is indicated by four stars (****))”. In data set [2], the EC (1.5-fold increase) was less than 0.1 µM.
In turn, `CN1CC=C(c2cn3c(=O)cc(-c4ccc5c(cnn5C)c4)nc3cn2)CC1` [Compound 506, 2-(1-methyl-1H-indazol-5-yl)-7-(1-methyl-1,2,3,6-tetrahydropyridin-4-yl)-4H-pyrazino[1,2-a]pyrimidin-4-one] showed a melting point of 234 to 236 °C. In data set [1], the “EC1.5x for Smn protein expression” value is listed as “**** (an EC1.5x≤0.3 μM is indicated by four stars (****))”; the “maximum fold (Fold) increase” value is “**** (a fold increase between >1.5 and ≤1.65 is indicated by four stars (****))”. Moreover, the EC (1.5-fold increase) in data set [2] is less than 0.1 µM.
The molecule `Cc1cn2nc(-c3cc(=O)n4cc(N5CCN[C@H](C)C5)cc(C)c4n3)cc2c(C)n1` [Compound 509, 2-(4,6-dimethylpyrazolo[1,5-a]pyrazin-2-yl)-9-methyl-7-[(3R)-3-methylpiperazin-1-yl]-4H-pyrido[1,2-a]pyrimidin-4-one] returned a melting point of 213 to 222 °C. Also, in data set [1], the “EC1.5x for Smn protein expression” value was “*** (an EC1.5× between >0.3 μM and ≤1 μM is indicated by three stars (***))”; the “maximum fold (Fold) increase” value was “**** (a fold increase between >1.5 and ≤1.65 is indicated by four stars (****))”. Further, in data set [2], the EC (1.5-fold increase) was less than 0.1 µM.
`Cc1cn2nc(-c3cc(=O)n4cc(N5CCN(C)[C@H](C)C5)cc(C)c4n3)cc2c(C)n1` [Compound 510, 7-[(3R)-3,4-dimethylpiperazin-1-yl]-2-(4,6-dimethylpyrazolo[1,5-a]pyrazin-2-yl)-9-methyl-4H-pyrido[1,2-a]pyrimidin-4-one] displayed a melting point of 244 to 253 °C. In data set [1], the “EC1.5x for Smn protein expression” value is given as “**** (an EC1.5x≤0.3 μM is indicated by four stars (****))” and the “maximum fold (Fold) increase” value is “***** (a fold increase >1.65 is indicated by five stars (*****))”. Moreover, the EC (1.5-fold increase) in data set [2] was less than 0.1 µM.
For the molecule `CCN1CCN(c2cc(C)c3nc(-c4cc5c(C)nc(C)cn5n4)cc(=O)n3c2)C[C@H]1C` [Compound 511, 2-(4,6-dimethylpyrazolo[1,5-a]pyrazin-2-yl)-7-[(3R)-4-ethyl-3-methylpiperazin-1-yl]-9-methyl-4H-pyrido[1,2-a]pyrimidin-4-one], the melting point lay within 240 to 245 °C. Moreover, in data set [1], the “EC1.5x for Smn protein expression” value is “** (an EC1.5× between >1 μM and ≤3 μM is indicated by two stars (**))”; the “maximum fold (Fold) increase” value is “**** (a fold increase between >1.5 and ≤1.65 is indicated by four stars (****))”. Besides, the EC (1.5-fold increase) in data set [2] was less than 0.1 µM.
In turn, `Cc1cn2nc(-c3cc(=O)n4nc(C5CCN(C)CC5)ccc4n3)cc2c(C)n1` [Compound 513, 2-(4,6-dimethylpyrazolo[1,5-a]pyrazin-2-yl)-7-(1-methylpiperidin-4-yl)-4H-pyrimido[1,2-b]pyridazin-4-one] gave a melting point of 265 to 267 °C. In addition, in data set [1], the “EC1.5x for Smn protein expression” value is “**** (an EC1.5x≤0.3 μM is indicated by four stars (****))” and the “maximum fold (Fold) increase” value was “***** (a fold increase >1.65 is indicated by five stars (*****))”. Further, the EC (1.5-fold increase) in data set [2] lay in the range of 0.1 to 0.3 µM.

One may read the melting point as the temperature of the solid-liquid transition.

The record behind these values is patent publication US11753407B2, “Compounds for treating spinal muscular atrophy” (PTC Therapeutics, Inc., priority 2012, dated 2023).
